# Test results from US20060069157A1, “Method of ameliorating or abrogating the effects of a neurodegenerative disorder, such as Huntington's disease, by sodium butyrate chemotherapy” (U.S. DEPARTMENT OF VETERANS AFFAIRS, priority 2004, published 2006).
# Entries after “also recorded” stand apart in the source; their conditions may differ. Marks after values point to notes of the source that are not given here.
# Key:
# [1] = system: R6/2 transgenic mouse model of HD; experiment: Neuropathological evaluation (brain weight, gross atrophy, striatal neuron area) at 90 days; type: in vivo
# Protocol: (§1) Neuropathological Evaluation of Sodium Butyrate Treatment: Beginning at 21 days, R6/2 transgenic mice and wild-type littermate control mice were treated daily with the most optimal dose of sodium butyrate (1.2 g/kg), as determined by survival studies, or PBS intraperitoneal injections. Groups of 10 animals from each treatment paradigm were deeply anesthetized and transcardially perfused with 4% buffered paraformaldehyde at 90 days of age. Forty mice were used for neuropathological analysis, as previously described (Ferrante et al., 2002). Serially cut tissue sections were stained for Nissl substance and immunostained for huntingtin (monoclonal huntingtin antibody, 1:1,000 dilution, Chemicon International Inc.) and for acetylated histone 3 and histone 4 (dilution, 1:1,000, Upstate Biotechnology, Lake Placid, N.Y.), using a previously reported conjugated secondary antibody method in murine brain tissue samples (Ferrante et al., 2002). Specificity for the antisera used in this study was examined in each immunochemical experiment to assist with the interpretation of the results. Preabsorption with excess target proteins, omission of the primary antibodies, and omission of secondary antibodies were performed to determine the amount of background generated from the detection assay.
# (§2) Stereology/Quantitation: Serial-cut coronal tissue-sections beginning from the most rostral segment of the neostriatum to the level of the anterior commissure (Inter aural 5.34 mm/Bregma 1.54 mm to Inter aural 3.7 mm/Bregma −0.10 mm), were used for huntingtin aggregate analysis. Unbiased stereological counts of huntingtin-positive aggregates ([…]) were obtained from the neostriatum in 10 mice each from sodium butyrate-treated (1.2 g/kg) and PBS-treated R6/2 mice at 90 days using Neurolucida Stereo Investigator software (Microbrightfield, Colchester, Vt.). The total areas of the rostral neostriatum were defined in serial sections in which counting frames were randomly sampled. The optical dissector method was employed estimating the number of huntingtin-positive aggregates. Striatal neuron areas were analyzed by microscopic videocapture using a Windows-based image analysis system for area measurement (Optimas, Bioscan Incorporated, Edmonds, Wash.). The software automatically identifies and measures profiles. All computer identified cell profiles were manually verified as neurons and exported to Microsoft Excel. Cross-sectional areas were analyzed using Statview.
# [2] = system: huntingtin-positive aggregates; experiment: Huntingtin aggregate stereology and ubiquitin inclusions in neostriatum; type: in vivo, mouse; details: 1.2 g/kg/d i.p. from 21 days; at 90 days; vs PBS-treated R6/2
# Protocol: Neuropathological Evaluation of Sodium Butyrate Treatment: Beginning at 21 days, R6/2 transgenic mice and wild-type littermate control mice were treated daily with the most optimal dose of sodium butyrate (1.2 g/kg), as determined by survival studies, or PBS intraperitoneal injections. Groups of 10 animals from each treatment paradigm were deeply anesthetized and transcardially perfused with 4% buffered paraformaldehyde at 90 days of age. Forty mice were used for neuropathological analysis, as previously described (Ferrante et al., 2002). […]
# Stereology/Quantitation: Serial-cut coronal tissue-sections beginning from the most rostral segment of the neostriatum to the level of the anterior commissure (Inter aural 5.34 mm/Bregma 1.54 mm to Inter aural 3.7 mm/Bregma −0.10 mm), were used for huntingtin aggregate analysis. […] Striatal neuron areas were analyzed by microscopic videocapture using a Windows-based image analysis system for area measurement (Optimas, Bioscan Incorporated, Edmonds, Wash.). […] Cross-sectional areas were analyzed using Statview.
# [3] = system: acetylated histone 3 and histone 4; experiment: Immunocytochemistry of acetylated H3 and H4 in brain sections; type: in vivo, mouse; details: 1.2 g/kg/d i.p.; R6/2 mice at 90 days
# Protocol: as §1
# [4] = system: Sp1; experiment: Sp1 acetylation immunoprecipitation and Western blot analysis; type: in vivo, mouse; details: 1.2 g/kg/day i.p. for two weeks
# Protocol: Sp1 Acetylation Immunoprecipitation and Western Blot Analysis: At 42 days of age, groups (n=6) of R6/2 mice were treated with daily 1.2 g/kg sodium butyrate or PBS intraperitoneal injections for two weeks. The mice were euthanized and tissue lysates were obtained by homogenizing each brain sample with 100 mM Tris (pH 7.4) buffer containing 1% Triton-X 100, 150 mM NaCl, 1 mM sodium orthovanadate, 5 mM sodium fluoride, 3 mM PMSF, 3 mM DTT, 0.5 Êg/ml leupeptin, and 10 Êg/ml aprotinin. To monitor Sp1 acetylation in vivo, tissue lysates were precleared by the addition of 30 Êl of protein A-sepharose (50% v/v slurry) for 1 hr at 4° C. and incubated with 2 Êg of Sp1 antibody for 2-4 hr. Twenty-five Êl of protein A-sepharose was added to lysates and left for 1 hr at […]. All beads were collected by centrifugation and washed twice with lysis buffer and once with PBS. The samples were boiled and divided into equal aliquots before separation on SDS-PAGE. Samples were electrophoresed under reducing conditions on 8% polyacrylamide gels. Proteins were then transferred to nitrocellulose membrane (BioRad, Hercules, Calif.). […] Proteins immunoreactive to acetyl lysine were detected by using an acetyl-lysine specific antibodies (Upstate Biotechnology, Lake Placid, N.Y., 1:1000 dilution). Immunoreactive proteins were detected according to an enhanced chemiluminescent protocol (Amersham, Piscataway, N.J.). […]
# [5] = system: 3-NP induced striatal lesions in R6/2 mice; experiment: 3-Nitropropionic acid (3-NP) striatal toxicity in R6/2 mice; type: in vivo, mouse
# Protocol: 3-Nitropropionic Acid Administration: At six weeks, groups of 10 R6/2 mice were treated with daily 1.2 g/kg sodium butyrate or PBS via intraperitoneal injections for two weeks. At the start of week two, 3-nitropropionic acid (3-NP) (Sigma, St. Louis, Mo.) was dissolved in PBS (pH adjusted to 7.4), made fresh daily, and injected intraperitoneally 9 times at 12 hrs intervals (75 mg/kg) in R6/2 mice. The mice were euthanized 8-10 hrs after the last 3-NP injection, deeply anesthetized and transcardially perfused with buffered 4% paraformaldehyde and processed for histopathologic evaluation. Glycerol cryoprotected brains were frozen sectioned at 50 Êm, stained with cresyl violet, and quantitative analysis of lesion volumes was performed in serial sections as described below.
# as §2
# [6] = system: MKP-1, α-globin, β-globin, preproenkephalin mRNA; experiment: Northern blotting of brain mRNAs; type: in vivo, mouse; details: percentage of untreated R6/2, normalized to β-actin
# Protocol: Northern Blotting: Two micrograms of total RNA from brain samples of sodium butyrate-treated and untreated R6/2 and wild type mice (n=4 each) were separated on a 1.2% agarose 3% formaldehyde gel in 1× MOPS buffer, electrophoretically transferred to a nylon membrane (Genescreen Ill.) in 1× TAE, and dried in a standard utility oven at 65 βC. cDNA probes were prepared from IMAGE clones (Research Genetics, _-globin 555069, _-globin 318205, MKP-1 4235972), or cDNAs described in previous studies (enkephalin and _-actin probe sequences) (Luthi-Carter et al., 2002). Hybridizations and washes were conducted as previously described (Luthi-Carter et al. 2002). Blots were quantitated using a Molecular Dynamics Phosphorimager and its accompanying ImageQuant software. Signals for target mRNAs were expressed as ratios to _-actin signals (on the same blot), and the data was analyzed by unpaired two-tailed Student's t-test.
smiles,measurement,setting,value
CCCC(=O)[O-].[Na+] [sodium butyrate],brain weight loss,"[1]; 1.2 g/kg/d i.p. from 21 days, vs wild type littermates (unsupplemented R6/2: 18.9%)",5.6%
same,striatal neuron area,"[1]; 1.2 g/kg/d i.p., Wt 138.9, PBS-treated R6/2 57.1, p<0.01 vs PBS",113.5 ± 14.2 _m2
same,reduction of striatal neuron atrophy,"[1]; 1.2 g/kg/d i.p., vs PBS-treated R6/2",one fold
same,"gross brain atrophy, ventricular hypertrophy","[1]; 1.2 g/kg/d i.p., vs PBS-treated/untreated R6/2",reduced gross brain atrophy and ventricular enlargement; also recorded: ameliorated these gross neuropathological sequelae
same,huntingtin-positive striatal aggregates or ubiquitin-positive inclusions,[2],no significant differences; also recorded: no significant reduction
same,H3 and H4 acetylation immunostaining in brain sections,[3],increased acetylation of histone 4; also recorded: greatly enhanced
same,basal levels of Sp1,[4]; R6/2 mice,did not change
same,Sp1 acetylation levels in brain,[4]; R6/2 mice vs PBS,increased
same,mice with bilateral striatal lesions,"[5]; 1.2 g/kg/d i.p. two weeks, 3-NP in second week, 3-NP/PBS: seven of ten",two of ten
same,neuroprotection from 3-NP striatal damage,"[5]; 1.2 g/kg/d i.p. two weeks, 3-NP in second week, vs 3-NP and PBS-treated R6/2",prevented 3-NP striatal-induced damage; also recorded: marked neuroprotection; also recorded: nearly complete protection
same,reduction in lesion volume,"[5]; 1.2 g/kg/d i.p., vs 3-NP/PBS-treated R6/2 mice",73.3%
same,"Northern, NaBu Txd R6/2 vs R6/2","[6]; MKP-1 mRNA, Cortex, p<0.0001",204%^e
same,"Northern, NaBu Txd R6/2 vs R6/2","[6]; Preproenkephalin mRNA, Striatum",98%
same,"Northern, NaBu Txd R6/2 vs R6/2","[6]; α-globin mRNA, Cortex, p<0.01",159%^c
same,"Northern, NaBu Txd R6/2 vs R6/2","[6]; β-globin mRNA, Cortex, p<0.001",206%^d
